{
  "source": "patent US7122173B2",
  "about": "“Agent for the treatment of bladder irritative symptoms accompanied by benign prostatic hyperplasia” (Kyowa Hakko Kogyo Co., Ltd., priority 2001, dated 2006)",
  "tested_on": "delayed rectifier K^+ channel",
  "experiment": "Voltage clamp, delayed rectifier K+ currents (HP −20 mV) in unidentified DRG neurons",
  "format": "cell-based, rat",
  "details": "for K+ current HP: −20 mV (delayed rectifier), relative value (before drug = 1): unidentified DRG neurons",
  "protocol": "Experiments were performed on adult female Sprague Dawley rats. First and second series of the experiments were performed, respectively, in unidentified DRG neurons and a specific population of DRG neurons innervating the urinary bladder. The population of DRG neurons that innervate the urinary bladder were labeled by retrograde axonal transport of the fluorescent dye, Fast Blue (4% w/v) (Polyloy, Gross Umstadt, Germany), injected into the wall of the bladder in halothane-anesthetized animals 7 days before the dissociation. The dye was injected with a 28 gauge needle at three to six sites on the dorsal surface of the organ (5–6 μL per site, total volume of 20–30 μL). Each injection site was washed with saline to minimize contamination of adjacent organs with the dye.\nFreshly dissociated neurons from DRG were prepared from halothane-anesthetized animals. L6 and S1 DRG were dissected from animals and then dissociated in a shaking bath for 25 minutes at 35° C. with 5 mL DMEM (Sigma) containing 0.3 mg/mL trypsin (Type 3, Sigma), 1 mg/mL collagenase (Type 1, Sigma), and 0.1 mg/mL deoxyribonuclease (Type 4, Sigma). Trypsin inhibitor (Type 2a, Sigma) was then added thereto to neutralize the activity of trypsin. Individual DRG cell bodies were isolated by trituration and then plated on a poly-L-lysine-coated 35 mm Petri dishes.\nDye-labeled primary afferent neurons that innervate the urinary bladder were identified using an inverted phase-contrast microscope (Nikon, Tokyo, Japan) with fluorescent attachments (UV-1A filter; excitation wavelength, 365 nm). Gigaohm-seal whole-cell recordings were performed at room temperature (20–22° C.) on each labeled neuron in a culture dish that usually contained three to seven labeled cells among a few hundred unlabeled neurons. The internal solution contained (in mmol/L): KCl 140, CaCl2 1, MgCl2 2, EGTA 11, HEPES 10, Mg-ATP 2, and Tris-GTP 0.4 adjusted to pH 7.4 with KOH. Patch electrodes had resistances of 1–4 M Ω when filled with the internal solution. Neurons were superfused at a flow rate of 1.5 mL/minutes with an external solution containing (in mmol/L): NaCl 150, KCl 5, CaCl2 2.5, MgCl2 1, HEPES 10, and D-glucose 10, adjusted to pH 7.4 with NaOH. All recordings were made with an Axopatch-1D patch-clamp amplifier (Axon Instruments, Foster City, Calif.), and data were acquired and analyzed by PCLAMP software (Axon Instruments).\nIn voltage-clamp recordings, outward K^+ currents and inward Na^+ currents were measured. For the isolation of K^+ currents, the external solution was changed to one containing (in mmol/L): choline-Cl 150, KOH 5, CaCl2 0.03, HEPES 10, Mg(OH)2 3, and D-glucose 10, adjusted to pH 7.4 with HCl.\nIn first series of experiments using unidentified DRG neurons, outward K^+ currents were evoked by voltage steps to +60 mV, 800 ms long from a holding potentials of −90 mV, this was followed by a 1-second conditioning pre-pulse to −20 mV followed by a second pulse to +60 mV, identical to the first in the sequence. In the second series of experiments using Fast Blue-labeled bladder afferent neurons, slowly-inactivating A-type K^+ currents were isolated by subtraction of outward K^+ currents activated from a holding potential of −40 mV (on the condition of inactivation of the majority of slowly-inactivating A-type K^+ currents) from those activated from a holding potential of −120 mV (on the condition of full activation of slowly-inactivating A-type K^+ currents). A compound was added cumulatively, starting with a lower concentration. Currents were measured at the maximum (peak) and normalized to control (before addition of the compound).\nThe currents at a holding potential (HP) of −90 mV are results of the measurement of slowly-inactivating A-type K^+ currents, and the currents at an HP value of −20 mV are results of the measurement of delayed rectifier K^+ currents. […]",
  "data": [
    {"molecule": "C[C@](O)(C(=O)Nc1cccc2c1C(=O)c1sccc1CS2(=O)=O)C(F)(F)F", "note": "[Compound 1, (S)-(+)-N-(5,5-dioxido-10-oxo-4,10-dihydrothieno[3,2-c][1]benzothiepin-9-yl)-3,3,3-trifluoro-2-hydroxy-2-methylpropanamide]", "values": [
      {"measurement": "K+ current HP: −20 mV, relative value (before drug = 1)", "setting": "Compound 1 1.0 × 10^−5 mol/L, in the presence of 5 μmol/L verapamil", "value": "1.00 ± 0.02"},
      {"measurement": "K+ current HP: −20 mV, relative value (before drug = 1)", "setting": "Compound 1 1.0 × 10^−5 mol/L, in the presence of 20 mmol/L tetraethylammonium", "value": "1.01 ± 0.02"},
      {"measurement": "K+ current HP: −20 mV (delayed rectifier), relative value (before drug = 1)", "setting": "Compound 1 1.0 × 10^−5 mol/L", "value": "0.88 ± 0.07"},
      {"measurement": "K+ current HP: −20 mV, relative value (before drug = 1)", "setting": "Compound 1 1.0 × 10^−6 mol/L, in the presence of 5 μmol/L verapamil", "value": "1.00 ± 0.01"},
      {"measurement": "K+ current HP: −20 mV, relative value (before drug = 1)", "setting": "Compound 1 1.0 × 10^−6 mol/L, in the presence of 20 mmol/L tetraethylammonium", "value": "1.00 ± 0.00"},
      {"measurement": "K+ current HP: −20 mV (delayed rectifier), relative value (before drug = 1)", "setting": "Compound 1 1.0 × 10^−6 mol/L", "value": "1.00 ± 0.02"},
      {"measurement": "K+ current HP: −20 mV, relative value (before drug = 1)", "setting": "Compound 1 1.0 × 10^−7 mol/L, in the presence of 5 μmol/L verapamil", "value": "1.00 ± 0.01"},
      {"measurement": "K+ current HP: −20 mV, relative value (before drug = 1)", "setting": "Compound 1 1.0 × 10^−7 mol/L, in the presence of 20 mmol/L tetraethylammonium", "value": "0.99 ± 0.02"},
      {"measurement": "K+ current HP: −20 mV (delayed rectifier), relative value (before drug = 1)", "setting": "Compound 1 1.0 × 10^−7 mol/L", "value": "1.02 ± 0.01"},
      {"measurement": "K+ current HP: −20 mV (delayed rectifier), relative value (before drug = 1)", "setting": "Compound 1 1.0 × 10^−8 mol/L", "value": "0.98 ± 0.04"},
      {"measurement": "K+ current HP: −20 mV (delayed rectifier), relative value (before drug = 1)", "setting": "Compound 1 2.5 × 10^−8 mol/L", "value": "1.01 ± 0.03"},
      {"measurement": "K+ current HP: −20 mV, relative value (before drug = 1)", "setting": "Compound 1 5.0 × 10^−4 mol/L, in the presence of 5 μmol/L verapamil", "value": "0.83 ± 0.06"},
      {"measurement": "K+ current HP: −20 mV, relative value (before drug = 1)", "setting": "Compound 1 5.0 × 10^−4 mol/L, in the presence of 20 mmol/L tetraethylammonium", "value": "0.25 ± 0.04"},
      {"measurement": "K+ current HP: −20 mV, relative value (before drug = 1)", "setting": "Compound 1 5.0 × 10^−4 mol/L, in the presence of 60 mmol/L tetraethylammonium", "value": "0.54 ± 0.02"},
      {"measurement": "K+ current HP: −20 mV, relative value (before drug = 1)", "setting": "Compound 1 5.0 × 10^−5 mol/L, in the presence of 5 μmol/L verapamil", "value": "0.98 ± 0.01"},
      {"measurement": "K+ current HP: −20 mV, relative value (before drug = 1)", "setting": "Compound 1 5.0 × 10^−5 mol/L, in the presence of 20 mmol/L tetraethylammonium", "value": "0.84 ± 0.06"},
      {"measurement": "K+ current HP: −20 mV, relative value (before drug = 1)", "setting": "Compound 1 5.0 × 10^−5 mol/L, in the presence of 60 mmol/L tetraethylammonium", "value": "0.95 ± 0.03"},
      {"measurement": "K+ current HP: −20 mV (delayed rectifier), relative value (before drug = 1)", "setting": "Compound 1 5.0 × 10^−5 mol/L", "value": "0.81 ± 0.08"},
      {"measurement": "K+ current HP: −20 mV, relative value (before drug = 1)", "setting": "Compound 1 5.0 × 10^−6 mol/L, in the presence of 5 μmol/L verapamil", "value": "1.01 ± 0.01"},
      {"measurement": "K+ current HP: −20 mV, relative value (before drug = 1)", "setting": "Compound 1 5.0 × 10^−6 mol/L, in the presence of 20 mmol/L tetraethylammonium", "value": "0.98 ± 0.01"},
      {"measurement": "K+ current HP: −20 mV, relative value (before drug = 1)", "setting": "Compound 1 5.0 × 10^−6 mol/L, in the presence of 60 mmol/L tetraethylammonium", "value": "0.97 ± 0.02"},
      {"measurement": "K+ current HP: −20 mV, relative value (before drug = 1)", "setting": "Compound 1 5.0 × 10^−7 mol/L, in the presence of 5 μmol/L verapamil", "value": "1.00 ± 0.01"},
      {"measurement": "K+ current HP: −20 mV, relative value (before drug = 1)", "setting": "Compound 1 5.0 × 10^−7 mol/L, in the presence of 20 mmol/L tetraethylammonium", "value": "1.01 ± 0.01"},
      {"measurement": "K+ current HP: −20 mV, relative value (before drug = 1)", "setting": "Compound 1 5.0 × 10^−7 mol/L, in the presence of 60 mmol/L tetraethylammonium", "value": "0.97 ± 0.03"},
      {"measurement": "K+ current HP: −20 mV (delayed rectifier), relative value (before drug = 1)", "setting": "Compound 1 5.0 × 10^−7 mol/L", "value": "1.01 ± 0.02"},
      {"measurement": "K+ current HP: −20 mV, relative value (before drug = 1)", "setting": "Compound 1 5.0 × 10^−8 mol/L, in the presence of 5 μmol/L verapamil", "value": "1.00 ± 0.00"},
      {"measurement": "K+ current HP: −20 mV, relative value (before drug = 1)", "setting": "Compound 1 5.0 × 10^−8 mol/L, in the presence of 20 mmol/L tetraethylammonium", "value": "0.99 ± 0.01"},
      {"measurement": "K+ current HP: −20 mV, relative value (before drug = 1)", "setting": "Compound 1 5.0 × 10^−8 mol/L, in the presence of 60 mmol/L tetraethylammonium", "value": "1.00 ± 0.01"},
      {"measurement": "K+ current HP: −20 mV (delayed rectifier), relative value (before drug = 1)", "setting": "Compound 1 5.0 × 10^−8 mol/L", "value": "1.00 ± 0.01"},
      {"measurement": "K+ current HP: −20 mV, relative value (before drug = 1)", "setting": "Compound 1 5.0 × 10^−9 mol/L, in the presence of 20 mmol/L tetraethylammonium", "value": "0.99 ± 0.00"},
      {"measurement": "K+ current HP: −20 mV (delayed rectifier), relative value (before drug = 1)", "setting": "Compound 1 5.0 × 10^−9 mol/L", "value": "0.98 ± 0.02"}
    ]}
  ]
}
